Assay results published in PubChem BioAssay (NCI).
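In this assay, cells in 96-well plates receive the compound at five concentrations for 48 hours. Endpoints are linearly interpolated between the surrounding concentrations. GI50 marks 50% less growth. TGI is the concentration that stops growth completely.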

Assays:
Test in all cases: NCI anticancer screen, dose series, 48 h
MCF7 breast = system: MCF7 breast
T-47D breast = system: T-47D breast
SF-268 CNS = system: SF-268 CNS
MALME-3M melanoma = system: MALME-3M melanoma
U251 CNS = system: U251 CNS
SF-539 CNS = system: SF-539 CNS
SW-620 colon = system: SW-620 colon
HOP-62 NSCLC = system: HOP-62 NSCLC
A498 renal = system: A498 renal
HS 578T breast = system: HS 578T breast
K-562 leukemia = system: K-562 leukemia
HL-60(TB) leukemia = system: HL-60(TB) leukemia
SN12C renal = system: SN12C renal
KM12 colon = system: KM12 colon
A549 NSCLC = system: A549 NSCLC
RXF 393 renal = system: RXF 393 renal
HT29 colon = system: HT29 colon
PC-3 prostate = system: PC-3 prostate
MDA-MB-231 breast = system: MDA-MB-231 breast
LOX IMVI melanoma = system: LOX IMVI melanoma
NCI-H226 lung = system: NCI-H226 lung
SNB-75 CNS = system: SNB-75 CNS
HCC-2998 colon = system: HCC-2998 colon
CCRF-CEM leukemia = system: CCRF-CEM leukemia
DU-145 prostate = system: DU-145 prostate
HOP-92 NSCLC = system: HOP-92 NSCLC
COLO 205 colon = system: COLO 205 colon
NCI-H522 lung = system: NCI-H522 lung
OVCAR-8 ovarian = system: OVCAR-8 ovarian
IGROV1 ovarian = system: IGROV1 ovarian
HCT-116 colon = system: HCT-116 colon
SK-MEL-5 melanoma = system: SK-MEL-5 melanoma
NCI/ADR-RES ovarian = system: NCI/ADR-RES ovarian
SK-MEL-2 melanoma = system: SK-MEL-2 melanoma
786-0 renal = system: 786-0 renal
OVCAR-4 ovarian = system: OVCAR-4 ovarian
TK-10 renal = system: TK-10 renal
UACC-62 melanoma = system: UACC-62 melanoma
HCT-15 colon = system: HCT-15 colon
OVCAR-5 ovarian = system: OVCAR-5 ovarian
M14 melanoma = system: M14 melanoma
UACC-257 melanoma = system: UACC-257 melanoma
SR leukemia = system: SR leukemia
RPMI-8226 leukemia = system: RPMI-8226 leukemia
CAKI-1 renal = system: CAKI-1 renal
NCI-H460 lung = system: NCI-H460 lung
ACHN renal = system: ACHN renal
SK-MEL-28 melanoma = system: SK-MEL-28 melanoma
MDA-MB-435 = system: MDA-MB-435
SF-295 CNS = system: SF-295 CNS
SNB-19 CNS = system: SNB-19 CNS
BT-549 breast = system: BT-549 breast
OVCAR-3 ovarian = system: OVCAR-3 ovarian
NCI-H23 lung = system: NCI-H23 lung
SK-OV-3 ovarian = system: SK-OV-3 ovarian
UO-31 renal = system: UO-31 renal
MOLT-4 leukemia = system: MOLT-4 leukemia

**Q.** For `CCN(Cc1cccnc1)c1ccc(CO)c(Cl)c1`, which GI50 (MCF7 breast) is on record?
**A.** 0.459 µM

**Q.** And the TGI (MCF7 breast)?
**A.** > 100 µM

**Q.** What about the GI50 (T-47D breast) of the same compound?
**A.** 0.269 µM

**Q.** And the TGI (T-47D breast)?
**A.** 1.54 µM

**Q.** And the GI50 (SF-268 CNS)?
**A.** > 100 µM

**Q.** And the TGI (SF-268 CNS)?
**A.** > 100 µM

**Q.** And the GI50 (MALME-3M melanoma)?
**A.** > 100 µM

**Q.** And the TGI (MALME-3M melanoma)?
**A.** > 100 µM

**Q.** What about the GI50 (U251 CNS) of the same compound?
**A.** 3.75 µM

**Q.** And the TGI (U251 CNS)?
**A.** > 100 µM

**Q.** What about the GI50 (SF-539 CNS) of the same compound?
**A.** > 100 µM

**Q.** What about the TGI (SF-539 CNS) of the same compound?
**A.** > 100 µM

**Q.** What about the GI50 (SW-620 colon) of the same compound?
**A.** 3.66 µM

**Q.** And the TGI (SW-620 colon)?
**A.** > 100 µM

**Q.** And the GI50 (HOP-62 NSCLC)?
**A.** 7.3 µM

**Q.** What about the TGI (HOP-62 NSCLC) of the same compound?
**A.** > 100 µM

**Q.** What about the GI50 (A498 renal) of the same compound?
**A.** 0.0797 µM

**Q.** And the TGI (A498 renal)?
**A.** 0.236 µM

**Q.** What about the GI50 (HS 578T breast) of the same compound?
**A.** > 100 µM

**Q.** What about the TGI (HS 578T breast) of the same compound?
**A.** > 100 µM

**Q.** And the GI50 (K-562 leukemia)?
**A.** 5.58 µM

**Q.** And the TGI (K-562 leukemia)?
**A.** > 100 µM

**Q.** And the GI50 (HL-60(TB) leukemia)?
**A.** 22.6 µM

**Q.** And the TGI (HL-60(TB) leukemia)?
**A.** > 100 µM

**Q.** What about the GI50 (SN12C renal) of the same compound?
**A.** > 87.5 µM

**Q.** What about the TGI (SN12C renal) of the same compound?
**A.** > 100 µM

**Q.** What about the GI50 (KM12 colon) of the same compound?
**A.** > 100 µM

**Q.** What about the TGI (KM12 colon) of the same compound?
**A.** > 100 µM

**Q.** And the GI50 (A549 NSCLC)?
**A.** 5.73 µM

**Q.** What about the TGI (A549 NSCLC) of the same compound?
**A.** > 75.8 µM

**Q.** And the TGI (RXF 393 renal)?
**A.** > 100 µM

**Q.** And the GI50 (HT29 colon)?
**A.** 4.67 µM

**Q.** And the TGI (HT29 colon)?
**A.** > 100 µM

**Q.** And the GI50 (PC-3 prostate)?
**A.** 58.4 µM

**Q.** And the TGI (PC-3 prostate)?
**A.** > 100 µM

**Q.** And the GI50 (MDA-MB-231 breast)?
**A.** > 95.8 µM

**Q.** And the TGI (MDA-MB-231 breast)?
**A.** > 100 µM

**Q.** What about the GI50 (LOX IMVI melanoma) of the same compound?
**A.** > 100 µM

**Q.** What about the TGI (LOX IMVI melanoma) of the same compound?
**A.** > 100 µM

**Q.** What about the GI50 (NCI-H226 lung) of the same compound?
**A.** 0.0885 µM

**Q.** And the TGI (NCI-H226 lung)?
**A.** 0.269 µM

**Q.** What about the GI50 (SNB-75 CNS) of the same compound?
**A.** 65.9 µM

**Q.** And the TGI (SNB-75 CNS)?
**A.** > 100 µM

**Q.** What about the GI50 (HCC-2998 colon) of the same compound?
**A.** 10.4 µM

**Q.** And the TGI (HCC-2998 colon)?
**A.** > 100 µM

**Q.** What about the GI50 (CCRF-CEM leukemia) of the same compound?
**A.** > 96 µM

**Q.** And the TGI (CCRF-CEM leukemia)?
**A.** > 100 µM

**Q.** What about the GI50 (DU-145 prostate) of the same compound?
**A.** > 81.3 µM

**Q.** And the TGI (DU-145 prostate)?
**A.** > 100 µM

**Q.** What about the GI50 (HOP-92 NSCLC) of the same compound?
**A.** 3.21 µM

**Q.** What about the TGI (HOP-92 NSCLC) of the same compound?
**A.** 66.4 µM

**Q.** What about the GI50 (COLO 205 colon) of the same compound?
**A.** 1.42 µM

**Q.** And the TGI (COLO 205 colon)?
**A.** 5.33 µM

**Q.** What about the GI50 (NCI-H522 lung) of the same compound?
**A.** > 100 µM

**Q.** And the TGI (NCI-H522 lung)?
**A.** > 100 µM

**Q.** What about the GI50 (OVCAR-8 ovarian) of the same compound?
**A.** 34.9 µM

**Q.** And the TGI (OVCAR-8 ovarian)?
**A.** > 100 µM

**Q.** What about the GI50 (IGROV1 ovarian) of the same compound?
**A.** 0.241 µM

**Q.** What about the TGI (IGROV1 ovarian) of the same compound?
**A.** 1.12 µM

**Q.** And the GI50 (HCT-116 colon)?
**A.** 0.298 µM

**Q.** And the TGI (HCT-116 colon)?
**A.** > 100 µM

**Q.** What about the GI50 (SK-MEL-5 melanoma) of the same compound?
**A.** 15.1 µM

**Q.** What about the TGI (SK-MEL-5 melanoma) of the same compound?
**A.** > 60.2 µM

**Q.** And the GI50 (NCI/ADR-RES ovarian)?
**A.** 36.5 µM

**Q.** And the TGI (NCI/ADR-RES ovarian)?
**A.** > 100 µM

**Q.** What about the GI50 (SK-MEL-2 melanoma) of the same compound?
**A.** > 37 µM

**Q.** What about the TGI (SK-MEL-2 melanoma) of the same compound?
**A.** > 100 µM

**Q.** And the GI50 (786-0 renal)?
**A.** > 45.5 µM

**Q.** What about the TGI (786-0 renal) of the same compound?
**A.** > 100 µM

**Q.** What about the GI50 (OVCAR-4 ovarian) of the same compound?
**A.** 0.433 µM

**Q.** What about the TGI (OVCAR-4 ovarian) of the same compound?
**A.** 4.63 µM

**Q.** And the GI50 (TK-10 renal)?
**A.** 0.12 µM

**Q.** And the TGI (TK-10 renal)?
**A.** 0.333 µM

**Q.** And the GI50 (UACC-62 melanoma)?
**A.** 0.289 µM

**Q.** What about the TGI (UACC-62 melanoma) of the same compound?
**A.** 2.05 µM

**Q.** What about the GI50 (HCT-15 colon) of the same compound?
**A.** > 88.8 µM

**Q.** And the TGI (HCT-15 colon)?
**A.** > 100 µM

**Q.** And the GI50 (OVCAR-5 ovarian)?
**A.** 0.244 µM

**Q.** What about the TGI (OVCAR-5 ovarian) of the same compound?
**A.** 0.915 µM

**Q.** And the GI50 (M14 melanoma)?
**A.** > 100 µM

**Q.** What about the TGI (M14 melanoma) of the same compound?
**A.** > 100 µM

**Q.** And the GI50 (UACC-257 melanoma)?
**A.** 0.195 µM

**Q.** And the TGI (UACC-257 melanoma)?
**A.** 0.621 µM

**Q.** And the GI50 (SR leukemia)?
**A.** > 100 µM

**Q.** And the TGI (SR leukemia)?
**A.** > 100 µM

**Q.** What about the GI50 (RPMI-8226 leukemia) of the same compound?
**A.** 11.1 µM

**Q.** What about the TGI (RPMI-8226 leukemia) of the same compound?
**A.** > 100 µM

**Q.** What about the GI50 (CAKI-1 renal) of the same compound?
**A.** 22.5 µM

**Q.** And the TGI (CAKI-1 renal)?
**A.** > 100 µM

**Q.** And the GI50 (NCI-H460 lung)?
**A.** 0.555 µM

**Q.** What about the TGI (NCI-H460 lung) of the same compound?
**A.** 8.66 µM

**Q.** And the GI50 (ACHN renal)?
**A.** 97.7 µM

**Q.** What about the TGI (ACHN renal) of the same compound?
**A.** > 100 µM

**Q.** What about the GI50 (SK-MEL-28 melanoma) of the same compound?
**A.** > 100 µM

**Q.** What about the TGI (SK-MEL-28 melanoma) of the same compound?
**A.** > 100 µM

**Q.** What about the GI50 (MDA-MB-435) of the same compound?
**A.** > 100 µM

**Q.** And the TGI (MDA-MB-435)?
**A.** > 100 µM

**Q.** And the GI50 (SF-295 CNS)?
**A.** 1.06 µM

**Q.** What about the TGI (SF-295 CNS) of the same compound?
**A.** > 100 µM

**Q.** What about the GI50 (SNB-19 CNS) of the same compound?
**A.** > 100 µM

**Q.** What about the TGI (SNB-19 CNS) of the same compound?
**A.** > 100 µM

**Q.** What about the GI50 (BT-549 breast) of the same compound?
**A.** > 94.3 µM

**Q.** And the TGI (BT-549 breast)?
**A.** > 100 µM

**Q.** And the GI50 (OVCAR-3 ovarian)?
**A.** 1.13 µM

**Q.** What about the TGI (OVCAR-3 ovarian) of the same compound?
**A.** 5.36 µM

**Q.** And the GI50 (NCI-H23 lung)?
**A.** 45 µM

**Q.** What about the TGI (NCI-H23 lung) of the same compound?
**A.** > 100 µM

**Q.** And the GI50 (SK-OV-3 ovarian)?
**A.** 23.5 µM

**Q.** What about the TGI (SK-OV-3 ovarian) of the same compound?
**A.** > 100 µM

**Q.** And the GI50 (UO-31 renal)?
**A.** 20 µM

**Q.** What about the TGI (UO-31 renal) of the same compound?
**A.** > 100 µM

**Q.** And the GI50 (MOLT-4 leukemia)?
**A.** > 94.9 µM

**Q.** And the TGI (MOLT-4 leukemia)?
**A.** > 100 µM
